Assay results taken from US20260356851A1, “TRICYCLIC COMPOUNDS AND USES THEREOF” (HUTCHMED LIMITED, priority 2023, published 2026).
pIC50: −log10 of the molar value.

Assays:
Type in all cases: cell-based
[1] = target: T1, pERK1/2 (Thr202/Tyr204), PANC-1 (KRAS G121D) (Homo sapiens, UniProt P01116, G12D); assay: Assay of intracellular pERK1/2 (Thr202/Tyr204) phosphorylation in PANC-1 cells (KRAS G12D); settings: pERK1/2, 2 days, read-out: PANC-1 (KRAS G12D) IC50
T1 construct: pERK1/2 HTRF read-out
T1 sequence (P01116 1-188 isoform P01116-2 G12D): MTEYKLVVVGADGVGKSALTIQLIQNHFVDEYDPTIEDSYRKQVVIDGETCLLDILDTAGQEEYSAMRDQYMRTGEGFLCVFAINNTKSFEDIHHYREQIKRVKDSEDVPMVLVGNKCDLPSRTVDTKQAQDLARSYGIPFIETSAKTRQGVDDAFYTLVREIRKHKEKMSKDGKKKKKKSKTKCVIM
Procedure, shortened: (§1)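 HTRF detection of Thr202/Tyr204-phosphorylated ERK1/2 (665/615 nm ratio) in lysates from cells treated 2 days with serially 3-fold diluted compound.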

[2] = target: T2, pERK1/2 (Thr202/Tyr204), NCI-1H358 (KRAS G12C) (Homo sapiens, UniProt P01116, G12C); assay: Assay of intracellular pERK1/2 (Thr202/Tyr204) phosphorylation in NCI-H358 cells (KRAS G12C); settings: pERK1/2, 2 days, read-out: NCI-H358 (KRAS G12C) IC50
T2 construct: pERK1/2 HTRF read-out
T2 sequence (P01116 1-188 isoform P01116-2 G12C): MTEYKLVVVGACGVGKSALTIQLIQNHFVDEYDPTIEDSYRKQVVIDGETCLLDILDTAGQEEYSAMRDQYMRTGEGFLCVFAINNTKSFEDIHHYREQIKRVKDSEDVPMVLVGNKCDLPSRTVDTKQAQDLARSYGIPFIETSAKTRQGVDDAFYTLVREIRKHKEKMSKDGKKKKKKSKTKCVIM
Procedure, shortened: as §1

[3] = target: T3, pERK1/2 (Thr202/Tyr204), NCI-1H441 (KRAS G12V) (Homo sapiens, UniProt P01116, G12V); assay: Assay of intracellular pERK1/2 (Thr202/Tyr204) phosphorylation in NCI-H441 cells (KRAS G12V); settings: pERK1/2, 2 days, read-out: NCI-H441 (KRAS G12V) IC50
T3 construct: pERK1/2 HTRF read-out
T3 sequence (P01116 1-188 isoform P01116-2 G12V): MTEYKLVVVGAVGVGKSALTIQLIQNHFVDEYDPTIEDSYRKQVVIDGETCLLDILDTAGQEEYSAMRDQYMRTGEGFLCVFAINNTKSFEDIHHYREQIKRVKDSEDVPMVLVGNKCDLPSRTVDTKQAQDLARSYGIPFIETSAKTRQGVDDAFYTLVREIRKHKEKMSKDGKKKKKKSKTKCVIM
Procedure, shortened: as §1

SMILES: [2H]C1([2H])CC[C@@]2(C([2H])([2H])Oc3nc4c5c(nc(-c6cc(O)cc(Cl)c6C6CC6)c(F)c5n3)OCCN4[C@H](C)c3cccnc3N)C[C@@H](F)CN12 (single isomer, unassigned) [Compound 130, 3-(10-((R or S)-1-(2-aminopyridin-3-yl)ethyl)-4-fluoro-2-(((2R,7aS)-2-fluorotetrahydro-1H-pyrrolizin-7a(5H)-yl-5,5-d2)methoxy-d2)-9,10-dihydro-8H-7-oxa-1,3,6,10-tetraazacyclohepta[de]naphthalen-5-yl)-5-chloro-4-cyclopropylphenyl]
- pIC50 [1]: < 7.00
- pIC50 [2]: < 7.00
- pIC50 [3]: < 7.00

SMILES: [2H]C1([2H])CC[C@@]2(C([2H])([2H])Oc3nc4c5c(nc(-c6cc(O)cc(Cl)c6C6CC6)c(F)c5n3)OCCN4C(C)c3cccnc3N)C[C@@H](F)CN12 (single isomer, unassigned) [Compound 131, 3-(10-((R or S)-1-(2-aminopyridin-3-yl)ethyl)-4-fluoro-2-(((2R,7aS)-2-fluorotetrahydro-1H-pyrrolizin-7a(5H)-yl-5,5-d2)methoxy-d2)-9,10-dihydro-8H-7-oxa-1,3,6,10-tetraazacyclohepta[de]naphthalen-5-yl)-5-chloro-4-cyclopropylphenol]
- pIC50 [1]: 8.15
- pIC50 [2]: 9.30
- pIC50 [3]: 9.00

SMILES: [2H]C([2H])(Oc1nc2c3c(nc(-c4cc(N)cc(C)c4C(F)(F)F)c(F)c3n1)OCCN2C(C)c1cccnc1N)[C@@H]1C[C@@H](F)CN1C([2H])([2H])[2H] (single isomer, unassigned) [Compound 132, 3-((R or S)-1-(5-(5-amino-3-methyl-2-(trifluoromethyl)phenyl)-4-fluoro-2-(((2S,4R)-4-fluoro-1-(methyl-d3)pyrrolidin-2-yl)methoxy-d2)-8,9-dihydro-10H-7-oxa-1,3,6,10-tetraazacyclohepta[de]naphthalen-10-yl)ethyl)pyridin-2-amine]
- pIC50 [1]: 7.85
- pIC50 [2]: 9.40
- pIC50 [3]: 9.00

SMILES: [2H]C([2H])(Oc1nc2c3c(nc(-c4cc(N)cc(C)c4C(F)(F)F)c(F)c3n1)OCCN2C(C)c1cccnc1N)[C@@H]1C[C@@H](F)CN1C([2H])([2H])[2H] (single isomer, unassigned) [Compound 133, 3-((R or S)-1-(5-(5-amino-3-methyl-2-(trifluoromethyl)phenyl)-4-fluoro-2-(((2S,4R)-4-fluoro-1-(methyl-d3)pyrrolidin-2-yl)methoxy-d2)-8,9-dihydro-10H-7-oxa-1,3,6,10-tetraazacyclohepta[de]naphthalen-10-yl)ethyl)pyridin-2-amine]
- pIC50 [1]: < 7.00
- pIC50 [2]: 8.52
- pIC50 [3]: 8.00

SMILES: Cc1c(F)c(N)cc(-c2nc3c4c(nc(OC[C@@]56CCCN5C[C@H](F)C6)nc4c2F)N([C@H](C)c2cccnc2N)CCO3)c1C(F)(F)F (single isomer, unassigned) [Compound 137]
- pIC50 [1]: 9.05
- pIC50 [2]: 10.00
- pIC50 [3]: 9.70

SMILES: Cc1c(F)c(N)cc(-c2nc3c4c(nc(OC[C@@]56CCCN5C[C@H](F)C6)nc4c2F)N(C(C)c2cccnc2N)CCO3)c1C(F)(F)F (single isomer, unassigned) [Compound 138, 3-((R or S)-1-(5-(5-amino-4-fluoro-3-methyl-2-(trifluoromethyl)phenyl)-4-fluoro-2-(((2R,7aS)-2-fluorotetrahydro-1H-pyrrolizin-7a(5H)-yl)methoxy)-8,9-dihydro-10H-7-oxa-1,3,6,10-tetraazacyclohepta[de]naphthalen-10-yl)ethyl)pyridin-2-amine]
- pIC50 [1]: 7.52
- pIC50 [2]: 7.89
- pIC50 [3]: 7.77

SMILES: [2H]C([2H])(Oc1nc2c3c(nc(-c4cc(O)cc(Cl)c4C4CC4)c(F)c3n1)OCCN2[C@H](C)c1cccnc1N)[C@@H]1C[C@@H](F)CN1C([2H])([2H])[2H] (single isomer, unassigned) [Compound 142, 3-(10-((R or S)-1-(2-aminopyridin-3-yl)ethyl)-4-fluoro-2-(((2S,4R)-4-fluoro-1-(methyl-d3)pyrrolidin-2-yl)methoxy-d2)-9,10-dihydro-8H-7-oxa-1,3,6,10-tetraazacyclohepta[de]naphthalen-5-yl)-5-chloro-4-cyclopropylphenyl]
- pIC50 [1]: < 7.00
- pIC50 [2]: < 7.00
- pIC50 [3]: < 7.00

SMILES: [2H]C([2H])(Oc1nc2c3c(nc(-c4cc(O)cc(Cl)c4C4CC4)c(F)c3n1)OCCN2[C@@H](C)c1cccnc1N)[C@@H]1C[C@@H](F)CN1C([2H])([2H])[2H] (single isomer, unassigned) [Compound 143, 3-(10-((R or S)-1-(2-aminopyridin-3-yl)ethyl)-4-fluoro-2-(((2S,4)-4-fluoro-1-(methyl-d3)pyrrolidin-2-yl)methoxy-d2)-9,10-dihydro-8H-7-oxa-1,3,6,10-tetraazacyclohepta[de]naphthalen-5-yl)-5-chloro-4-cyclopropylphenol]
- pIC50 [1]: 7.68
- pIC50 [2]: 9.30
- pIC50 [3]: 8.70

SMILES: CC(c1cccnc1N)N1CCOc2nc(-c3cc(N)c(F)cc3C(F)(F)F)c(F)c3nc(OC[C@@]45CCCN4C[C@H](F)C5)nc1c23 (single isomer, unassigned) [Compound 144, 3-((R or S)-1-(5-(5-amino-4-fluoro-2-(trifluoromethyl)phenyl)-4-fluoro-2-(((2R,7aS)-2-fluorotetrahydro-1H-pyrrolizin-7a(5H)-yl)methoxy)-8,9-dihydro-10H-7-oxa-1,3,6,10-tetraazacyclohepta[de]naphthalen-10-yl)ethyl)pyridin-2-amine]
- pIC50 [1]: 7.77
- pIC50 [2]: 9.40
- pIC50 [3]: 8.70

SMILES: CC(c1cccnc1N)N1CCOc2nc(-c3cc(N)c(F)cc3C(F)(F)F)c(F)c3nc(OC[C@@]45CCCN4C[C@H](F)C5)nc1c23 (single isomer, unassigned) [Compound 145, 3-((R or S)-1-(5-(5-amino-4-fluoro-2-(trifluoromethyl)phenyl)-4-fluoro-2-(((2R,7aS)-2-fluorotetrahydro-1H-pyrrolizin-7a(5H)-yl)methoxy)-8,9-dihydro-10H-7-oxa-1,3,6,10-tetraazacyclohepta[de]naphthalen-10-yl)ethyl)pyridin-2-amine]
- pIC50 [1]: < 7.00
- pIC50 [2]: 7.85
- pIC50 [3]: 7.29

SMILES: [2H]C1([2H])CN(C(C)c2cccnc2N)c2nc(OC[C@@]34CCCN3C[C@H](F)C4)nc3c(F)c(-c4cc(N)cc(C)c4C(F)(F)F)nc(c23)O1 (single isomer, unassigned) [Compound 153, 3-((R or S)-1-(5-(5-amino-3-methyl-2-(trifluoromethyl)phenyl)-4-fluoro-2-(((2R,7aS)-2-fluorotetrahydro-1H-pyrrolizin-7a(5H)-yl)methoxy)-8,9-dihydro-10H-7-oxa-1,3,6,10-tetraazacyclohepta[de]naphthalen-10-yl-8,8-d2)ethyl)pyridin-2-amine]
- pIC50 [1]: 8.70
- pIC50 [2]: 9.70
- pIC50 [3]: 9.30

SMILES: [2H]C1([2H])CN(C(C)c2cccnc2N)c2nc(OC[C@@]34CCCN3C[C@H](F)C4)nc3c(F)c(-c4cc(N)cc(C)c4C(F)(F)F)nc(c23)O1 (single isomer, unassigned) [Compound 154, 3-((R or S)-1-(5-(5-amino-3-methyl-2-(trifluoromethyl)phenyl)-4-fluoro-2-(((2R,7aS)-2-fluorotetrahydro-1H-pyrrolizin-7a(5H)-yl)methoxy)-8,9-dihydro-10H-7-oxa-1,3,6,10-tetraazacyclohepta[de]naphthalen-10-yl-8,8-d2)ethyl)pyridin-2-amine]
- pIC50 [1]: < 7.00
- pIC50 [2]: 7.68
- pIC50 [3]: 7.51

SMILES: Cc1cc(N)cc(-c2nc3c4c(nc(OC[C@@H]5CCCN5C5COC5)nc4c2F)N(C(C)c2cccnc2N)CCO3)c1C(F)(F)F (single isomer, unassigned) [Compound 160, 3-((R or S)-1-(5-(5-amino-3-methyl-2-(trifluoromethyl)phenyl)-4-fluoro-2-(((S)-1-(oxetan-3-yl)pyrrolidin-2-yl)methoxy)-8,9-dihydro-10H-7-oxa-1,3,6,10-tetraazacyclohepta[de]naphthalen-10-yl)ethyl)pyridin-2-amine]
- pIC50 [1]: < 7.00
- pIC50 [2]: 9.30
- pIC50 [3]: 8.70

SMILES: Cc1cc(N)cc(-c2nc3c4c(nc(OC[C@@H]5CCCN5C5COC5)nc4c2F)N(C(C)c2cccnc2N)CCO3)c1C(F)(F)F (single isomer, unassigned) [Compound 161, 3-((R or S)-1-(5-(5-amino-3-methyl-2-(trifluoromethyl)phenyl)-4-fluoro-2-(((S)-1-(oxetan-3-yl)pyrrolidin-2-yl)methoxy)-8,9-dihydro-10H-7-oxa-1,3,6,10-tetraazacyclohepta[de]naphthalen-10-yl)ethyl)pyridin-2-amine]
- pIC50 [1]: < 7.00
- pIC50 [2]: 7.85
- pIC50 [3]: 7.32

SMILES: Cc1cc(N)cc(-c2nc3c4c(nc(OC[C@@]56CCCN5C[C@H](F)C6)nc4c2F)N([C@H](C)c2cccnc2N)CCCO3)c1C(F)(F)F (single isomer, unassigned) [Compound 166, 3-((R or S)-1-(5-(5-amino-3-methyl-2-(trifluoromethyl)phenyl)-4-fluoro-2-(((2R,7aS)-2-fluorotetrahydro-1H-pyrrolizin-7a(5H)-yl)methoxy)-9,10-dihydro-77-oxa-1,3,6,11-tetraazacycloocta[de]naphthalen-11(8H)-yl)ethyl)pyridin-2-amine]
- pIC50 [1]: < 7.00
- pIC50 [2]: 7.16
- pIC50 [3]: < 7.00
